# Reference: patent publication US10302632B2, “Macromolecular conjugates for visualization and separation of proteins and cells” (USTAV ORGANICKE CHEMIE A BIOCHEMIE AV CR, V.V.I., priority 2015, dated 2019)
# Where two headings read alike, the source gives them in different places. Square brackets hold non-standard residues; d marks the D form. Peptide text beside a SMILES is read from it. Sta = CC(C)C[C@H](N)[C@@H](O)CC(=O)O; AEEA = NCCOCCOCC(=O)O
# What was measured:
# [1] = biological target: T1, recombinant extracellular GCPII (Avi-GCPII) (Homo sapiens, UniProt Q04609); experiment: Inhibition of GCPII hydrolytic activity (HPLC assay); type: biochemical
# T1 construct: using a recombinant extracellular GCPII (Avi-GCPII; prepared according to [13]); Avi-tag; made in house
# T1 sequence (Q04609 44-750 limits assumed): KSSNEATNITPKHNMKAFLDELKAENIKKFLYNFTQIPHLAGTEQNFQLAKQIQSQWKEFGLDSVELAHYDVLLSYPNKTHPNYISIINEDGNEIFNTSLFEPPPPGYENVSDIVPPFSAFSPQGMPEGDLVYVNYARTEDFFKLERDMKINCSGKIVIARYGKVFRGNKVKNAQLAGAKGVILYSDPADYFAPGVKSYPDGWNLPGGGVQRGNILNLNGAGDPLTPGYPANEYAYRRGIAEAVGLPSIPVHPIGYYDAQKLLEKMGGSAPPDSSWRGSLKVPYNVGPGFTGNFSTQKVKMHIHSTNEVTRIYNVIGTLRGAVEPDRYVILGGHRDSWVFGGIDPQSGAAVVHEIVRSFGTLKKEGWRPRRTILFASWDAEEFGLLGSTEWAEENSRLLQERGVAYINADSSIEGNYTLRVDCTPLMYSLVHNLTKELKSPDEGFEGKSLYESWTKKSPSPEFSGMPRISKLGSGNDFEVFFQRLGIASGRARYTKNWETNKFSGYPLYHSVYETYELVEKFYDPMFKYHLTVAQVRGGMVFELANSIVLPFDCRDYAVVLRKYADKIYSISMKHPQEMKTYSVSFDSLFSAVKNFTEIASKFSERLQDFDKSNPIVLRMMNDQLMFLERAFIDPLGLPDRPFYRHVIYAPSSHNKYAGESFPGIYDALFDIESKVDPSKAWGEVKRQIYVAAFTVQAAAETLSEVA
# Procedure: Inhibitory potency of the inhibitors and polymeric conjugates on the hydrolytic activity of GCPII were tested by HPLC (described in [12]) using a recombinant extracellular GCPII (Avi-GCPII; prepared according to [13]). 210 pg of GCPII was mixed with a solution of 25 mM Bis-Tris propane, 150 mM NaCl, pH 7.4, 0.001% monododecyl(oktaethylenglycol)ether (Affymetrix, Octaethylene glycol monododecyl ether) and inhibitor solution to a total volume of 180 μl in a 96-well plate. Ten different inhibitor concentrations covering the whole inhibition curve were used. Reactions were first incubated 5 min at 37° C., then initiated by addition of 20 μl of pteroyl-bis(L-glutamate) to a final concentration of 400 nM and incubated at 37° C. for 20 min. […] Subsequently, 100 μl of the reaction mixture was analyzed in Agilent 1200 Infinity (Agilent Technologies, Inc.) on an RP-HPLC column Waters Acquity UPLC HSS T3 1.8 μm, 2.1×100 mm (Waters). HPLC analysis was performed isocratically in 2.7% acetonitrile and 97.3% 20 mM phosphate, pH 6.0. Substrate and product absorbance was measured at 281 nm. IC50 values were obtained from GraFit v.5.0.11 (Erithacus Software Ltd.).
# Assuming competitive type of inhibition and using the values of KM and kcat, the Ki values for each inhibitor were determined from the Cheng-Prusoff equation [14].
# CA-IX = CA-IX (Homo sapiens, UniProt Q16790); experiment: Affinity isolation (pull-down) of CA-IX from HT-29 cell lysate; type: binding; set-up: HT-29 cell line endogenously expressing CA-IX; endogenous in cells; host or cells: HT-29; settings: conjugate on Streptavidin Sepharose, Western blot
# Procedure: HT29 cells (cultured in 100 mm Petri dish) endogenously expressing CA-IX were lysed by sonication in a water bath (3 min/0° C.) in 450 μl of 50 mM Tris-HCl, 150 mM NaCl, pH 7.4, 1% Tween 20. Resulting cell lysate was further diluted in 20 mM Tris-HCl, 150 mM NaCl, 0.1% Tween 20, pH 7.4 (TBST) to a final protein concentration of 360 μg/ml. Meanwhile, Conjugate 3 and Conjugate 2 (negative control showing nonspecific binding) were pre-bound to 25 μl of Streptavidin Sepharose (200 nM solution in 200 μl of TBST, 1 hour, 6° C.), and after washing with 3×200 μl TBST, the resin was mixed with 200 μl of HT-29 cell lysate and incubated at 25° C. for 3 hours. The resin was then washed with 3×200 μl of TBST and subsequently, proteins were eluted with 25 μl of sample buffer for SDS-PAGE and with heating to 98° C. for 10 min.
# To compare the effectiveness of CA-IX isolation with Conjugate 3, CA-IX was also isolated with M75 antibody. The experiment was performed analogously to experiment with polymeric conjugates: 1 μg of antibody was pre-bound to 20 μl of Protein G Sepharose the procedure followed as described above. […]
# After isolation, samples were separated by SDS-PAGE electrophoresis and the gel was blotted to a nitrocellulose membrane (wet blot 100 V/1 hour). […] Chemiluminescence was recorded with ChemiDoc It™ 600 Imaging System (UVP).
# HIV-1 protease = biological target: T2, HIV-1 protease (Human immunodeficiency virus type 1 group M subtype B, UniProt P04585); experiment: Inhibition of HIV-1 protease activity (spectrophotometric, chromogenic peptide substrate); type: biochemical; settings: pH 4.7, substrate 16 μM
# T2 construct: HIV-1 protease is a homodimeric aspartic protease
# Procedure: The inhibition analyses were performed by spectrophotometric assay using the chromogenic peptide substrate KARVNle*NphEANle-NH2 as previously described.
# The 1 ml reaction mixture contained 100 mM sodium acetate, 300 mM NaCl, pH 4.7, 6.8 pmol of HIV-1 protease and inhibitor in concentrations ranging between 2 and 130 nM. Substrate was added to a final concentration of 16 μM. Afterwards, the hydrolysis of substrate was followed as a decrease in absorbance at 305 nm using a UNICAM UV500 UV-VIS spectrophotometer (Thermo, Cambridge, Mass.). The data were analyzed using the equation for competitive inhibition according to Williams and Morrison. The mechanism of inhibition was determined by analysis of Lineweaver-Burk plots.
# [2] = read-out: Ki [nM] towards HIV-1 protease
compound,measurement,setting,value
poly(HPMA-co-Ma-β-Ala-ATTO488-co-Ma-β-Ala-NH-biotin) [Conjugate 2],inhibition of the activity of GCPII,[1],did not inhibit the activity of GCPII
same,affinity isolation / binding of CA-IX from lysate of HT-29 cells,CA-IX,no binding of CA-IX
"NCCOCCOCCOCCOCCOCCC(=O)N(CCCC[C@H](NC(=O)N[C@@H](CCC(=O)O)C(=O)O)C(=O)O)Cc1ccc(Br)cc1 [Compound A, (24S,28S)-19-(4-bromobenzyl)-24,28,30-tricarboxy-18,26-dioxo-3,6,9,12,15-pentaoxa-19,25,27-triazatriakontan-1-aminium 2,2,2-trifluoroacetate]",Ki,[1],2030 pM
"CC(C)[C@H](NC(=O)COCCOCCNC(=O)COCCOCCN)C(=O)N[C@@H](Cc1ccccc1)C[C@H](O)[C@H](Cc1ccccc1)NC(=O)OCc1cncs1 [compound C, (5S,6S,8S,11S)-5,8-dibenzyl-6-hydroxy-11-isopropyl-3,10,13,22-tetraoxo-1-(thiazol-5-yl)-2,15,18,24,27-pentaoxa-4,9,12,21-tetraazanonacosan-29-aminium 2,2,2-trifluoroacetate]",Ki,HIV-1 protease; [2],0.012 ± 0.001 nM
same,Ki,HIV-1 protease; read-out: Ki towards HIV-1 protease,0.013 nM
"CC(C)C[C@H](NC(=O)[C@H](C)NC(=O)C[C@H](O)[C@H](CC(C)C)NC(=O)[C@@H](NC(=O)[C@@H](NC(=O)COCCOCCNC(=O)COCCOCCN)C(C)C)C(C)C)[C@@H](O)CC(=O)O [compound D, (19S,22S,25S,26S,30S,33S)-33-((S)-2-carboxy-1-hydroxyethyl)-26-hydroxy-25-isobutyl-19,22-diisopropyl-30,35-dimethyl-8,17,20,23,28,31-hexaoxo-3,6,12,15-tetraoxa-9,18,21,24,29,32-hexaazahexatriacontan-1-aminium] (H-[AEEA][AEEA]VV[Sta]A[Sta]-OH)",Ki,HIV-1 protease; [2],590 nM
